# Results published in patent US20060115815A1 (priority 2002, published 2006).
# Read-outs that look alike come from different tables or passages of the source.
# Experiments:
# 46I50V = assay: microbe, parasite or virus in culture; assay type: cell-based, HIV-1
# WT = assay: microbe, parasite or virus in culture; assay type: cell-based, HIV-1
# 30N82I88D [1] = assay: microbe, parasite or virus in culture; assay type: cell-based, HIV-1
# 84V90M [2] = molecular target: T1, 84V90M (Human immunodeficiency virus type 1 group M subtype B, UniProt P04585, I572V/L578M); assay: cell-based; set-up: species or system HIV-1
# 48V54V82A [3] = assay: microbe, parasite or virus in culture; assay type: cell-based, HIV-1
# 30N82I88D [4] = system: 30N82I88D; set-up: species or system HIV-1; settings: MT-4, 30N82I88D; read-out: Cell-based assay (MT-4) EC50/nM 30N82I88D
# 48V54V82A [5] = system: 48V54V82A; set-up: species or system HIV-1; settings: MT-4, 48V54V82A; read-out: Cell-based assay (MT-4) EC50/nM 48V54V82A
# [6] = system: mutant HIV-1 with I84V/L90M mutations in the protease gene; assay type: cell-based; settings: for EC50: MT-4, 84V90M, read-out: Cell-based assay (MT-4) EC50/nM 84V90M
# WT HIV-1 = assay: microbe, parasite or virus in culture; assay type: cell-based
# [7] = molecular target: recombinant HIV-1 protease (Human immunodeficiency virus type 1 group M subtype B, UniProt P04585); assay: biochemical; assay type: biochemical
# [8] = system: PBMC in intact human whole blood
# [9] = system: recombinant HIV-1 strains with resistance mutations in the protease gene; assay: Cross-resistance profile assay, whole panel of mutant viruses; assay type: cell-based
# [10] = system: wild-type HIV-1 strain IIIB; assay: microbe, parasite or virus in culture; assay type: cell-based
# 84V90M [11] = molecular target: T1, 84V90M; assay: biochemical; set-up: species or system HIV-1; settings: 84V90M enzyme; read-out: Enzymatic assay 84V90M IC50
# [12] = MT-4, 46I50V, read-out: Cell-based assay (MT-4) EC50 46I50V
# [13] = read-out: Cell-based assay (MT-4) EC50 WT
# [14] = MT-4, 30N82I88D, read-out: Cell-based assay (MT-4) EC50 30N82I88D
# [15] = MT-4, 48V54V82A, read-out: Cell-based assay (MT-4) EC50 48V54V82A
# [16] = MT-4, WT, read-out: Cell-based assay (MT-4) EC50/nM WT
# [17] = Human immunodeficiency virus 1, read-out: Cell-based assay (MT-4) EC50 46I50V
# [18] = Human immunodeficiency virus 1, read-out: Cell-based assay (MT-4) EC50 WT
# [19] = Human immunodeficiency virus 1, read-out: Cell-based assay (MT-4) EC50 30N82I88D
# [20] = Human immunodeficiency virus 1, read-out: Cell-based assay (MT-4) EC50 48V54V82A
# [21] = fold difference in EC50, mutant vs. wild type
# [22] = Human immunodeficiency virus 1, read-out: EC50 [nM] WT HIV-1
smiles,measurement,setting,value
CCOP(=O)(CCCNC(=O)c1cccc(CN2C(=O)N(Cc3ccc4[nH]nc(N)c4c3)[C@H](Cc3ccccc3)[C@H](O)[C@@H](O)[C@H]2Cc2ccccc2)c1)OCC,EC50,46I50V; [12],319 nM
same,EC50,WT; [13],188 nM
same,EC50,30N82I88D [1]; [14],666 nM
same,EC50,"84V90M [2]; MT-4, 84V90M, read-out: Cell-based assay (MT-4) EC50 84V90M",476 nM
same,EC50,48V54V82A [3]; [15],240 nM
"O=C1N(Cc2ccccc2)[C@H](Cc2ccccc2)[C@H](O)[C@@H](O)[C@@H](Cc2ccc(O)cc2)N1Cc1ccccc1 [R=H, R1=Ph, R2=OH]",EC50,30N82I88D [4],2950 nM
same,EC50,48V54V82A [5],> 6000 nM
same,EC50,[6],> 6000 nM
same,EC50,WT HIV-1; [16],1260 nM
Nc1n[nH]c2ccc(CN3C(=O)N(Cc4cccc(O)c4)C(Cc4ccccc4)C(O)C(O)C3Cc3ccccc3)cc12 (centres unmarked) [m-OH],EC50,46I50V; [17],104 nM
same,EC50,WT; [18],151 nM
same,EC50,30N82I88D [1]; [19],249 nM
same,EC50,84V90M [2],475 nM
same,EC50,48V54V82A [3]; [20],84 nM
COc1ccc(CN2C(=O)N(Cc3ccc(OCc4ccccc4)cc3)[C@H](Cc3ccccc3)[C@H](O)[C@@H](O)[C@H]2Cc2ccccc2)cc1C#N,EC50,WT HIV-1; [16],5950 nM
same,Ki,[7]; read-out: Enzymatic assay Ki,> 5000 pM
CCOP(=O)(COCCCCN1C(=O)N(Cc2ccc3[nH]nc(N)c3c2)C(Cc2ccccc2)C(O)C(O)C1Cc1ccccc1)OCC (centres unmarked) [CH2OCH2PO3Et2],EC50,84V90M [2],3300 nM
CCOP(=O)(CCCNC(=O)c1cccc(CN2C(=O)N(Cc3ccc4[nH]nc(N)c4c3)C(Cc3ccccc3)C(O)C(O)C2Cc2ccccc2)c1)OCC (centres unmarked),EC50,WT; [18],188 nM
same,EC50,84V90M [2],476 nM
Nc1n[nH]c2ccc(CN3C(=O)N(CCCCOCP(=O)(O)O)C(Cc4ccccc4)C(O)C(O)C3Cc3ccccc3)cc12 (centres unmarked) [CH2OCH2PO3H2],EC50,84V90M [2],> 4240 nM
CCOC(=O)C(C)NP(=O)(COc1ccc(CC(NC(=O)OC2COC3OCCC23)C(O)CN(CC(C)C)S(=O)(=O)c2ccc(OC)cc2)cc1)Oc1ccccc1 (centres unmarked) [GS-16571],Intracellular Acid Metabolite Concentration,[8],319 ± 112 µM
same,Intracellular Prodrug Concentration,[8],137 ± 62 µM
same,"Intracellular Prodrug and Metabolites Concentration, uM: Acid Metabolite",[8],319 ± 112 µM
same,Intracellular Prodrug and Metabolites Concentration: Prodrug,[8],137 ± 62 µM
same,Intracellular Prodrug and Metabolites Concentration: Total,[8],432 ± 208 µM
same,Total No. of Resistant Viruses,"[9]; of 11 mutant viruses, resistance = 5-fold and higher change in EC50 relative to wild-type",0
CCOC(=O)C(C)OP(=O)(CCN(C)Cc1ccc(CC(NC(=O)OC2COC3OCCC23)C(O)CN(CC(C)C)S(=O)(=O)c2ccc(OC)cc2)cc1)Oc1ccccc1 (centres unmarked) [drawing 663 R1=Ph R2=Lac-Et],EC50,"[10]; Human immunodeficiency virus 1, IIIB, MT2, class symbols, Table 10",50 to 500 nM
same,I84V/L90M fold change,[6]; [21],+ (>3 to ≦10)
same,Ki,"[7]; Ki (pM), class symbols, Table 10",100 to 1000 pM
CCOP(=O)(Cc1ccc(CC(NC(=O)OC2COC3OCCC23)C(O)CN(CC(C)C)S(=O)(=O)c2ccc(OC)cc2)cc1)OCC (centres unmarked) [drawing 654 R1=OE R2=OE],EC50,[10]; read-out: EC50,< 50 nM
same,I84V/L90M fold change,[6]; [21],+ (>3 to ≦10)
same,Ki,[7]; read-out: Ki,< 10 pM
"COc1ccc(S(=O)(=O)N(CC(C)C)C[C@@H](O)[C@H](Cc2ccccc2)NC(=O)O[C@H]2CO[C@H]3OCC[C@H]32)cc1 [94-003, reference compound]",Total No. of Resistant Viruses,[9]; {},3
same,EC50,WT HIV-1; [22],0.5 nM
Nc1n[nH]c2ccc(CN3C(=O)N(Cc4cccc(OCP(=O)(OCc5ccccc5)OCc5ccccc5)c4)C(Cc4ccccc4)C(O)C(O)C3Cc3ccccc3)cc12 (centres unmarked),EC50,46I50V; [17],3120 nM
same,EC50,WT; [18],898 nM
same,EC50,30N82I88D [1]; [19],705 nM
same,EC50,84V90M [2],> 6000 nM
same,EC50,48V54V82A [3]; [20],2600 nM
"CCOP(=O)(COc1ccc(CC2C(O)C(O)C(Cc3ccc(OC)cc3)N(Cc3cccc(N)c3)C(=O)N2Cc2cccc(N)c2)cc1)OCC (centres unmarked) [OCH3, Ph-mNH2, OCH2PO3Et2]",EC50,84V90M [2],535 nM
Nc1n[nH]c2ccc(CN3C(=O)N(Cc4cccc(OCP(=O)(Oc5ccccc5)Oc5ccccc5)c4)C(Cc4ccccc4)C(O)C(O)C3Cc3ccccc3)cc12 (centres unmarked) [m-OCH2PO3Ph2],EC50,84V90M [2],> 6000 nM
CCOP(=O)(COCCCN1C(=O)N(Cc2ccc3[nH]nc(N)c3c2)C(Cc2ccccc2)C(O)C(O)C1Cc1ccccc1)OCC (centres unmarked) [OCH2PO3Et2],EC50,84V90M [2],> 6000 nM
Nc1n[nH]c2ccc(CN3C(=O)N(Cc4ccc(OCP(=O)(OCc5ccccc5)OCc5ccccc5)cc4)C(Cc4ccccc4)C(O)C(O)C3Cc3ccccc3)cc12 (centres unmarked),EC50,WT; [18],2700 nM
same,EC50,30N82I88D [1]; [19],2120 nM
same,EC50,84V90M [2],4960 nM
"CCOP(=O)(COc1ccc(CC2C(O)C(O)C(Cc3ccc(O)cc3)N(Cc3ccc(O)cc3)C(=O)N2Cc2ccc(O)cc2)cc1)OCC (centres unmarked) [OH, Ph-pOH, OCH2PO3Et2]",EC50,46I50V; [12],1110 nM
same,EC50,WT; [13],285 nM
same,EC50,30N82I88D [1]; [14],211 nM
same,EC50,48V54V82A [3]; [15],986 nM
O=C1N(Cc2ccccc2)[C@H](Cc2ccccc2)[C@H](O)[C@@H](O)[C@@H](Cc2ccc(OCP(=O)(OCc3ccccc3)OCc3ccccc3)cc2)N1Cc1ccccc1,EC50,30N82I88D [4],3140 nM
same,EC50,48V54V82A [5],> 6000 nM
same,EC50,[6],> 6000 nM
same,EC50,WT HIV-1; [16],1770 nM
CCOP(=O)(COc1ccc(CN2C(=O)N(Cc3ccc4[nH]nc(N)c4c3)C(Cc3ccccc3)C(O)C(O)C2Cc2ccccc2)cc1)OCC (centres unmarked),EC50,WT; [18],2480 nM
same,EC50,30N82I88D [1]; [19],1340 nM
same,EC50,84V90M [2],> 6000 nM
Nc1n[nH]c2ccc(CN3C(=O)N(Cc4cccc(OCP(=O)(O)Oc5ccccc5)c4)C(Cc4ccccc4)C(O)C(O)C3Cc3ccccc3)cc12 (centres unmarked) [m-OCH2PO3HPh],EC50,84V90M [2],> 6000 nM
"CC(C)(C)NC(=O)[C@@H]1CN(Cc2cccnc2)CCN1C[C@@H](O)C[C@@H](Cc1ccccc1)C(=O)N[C@H]1c2ccccc2C[C@H]1O [Indinavir, reference compound]",Total No. of Resistant Viruses,[9]; {},8
same,EC50,WT HIV-1; [22],15 nM
Cc1cccc(C)c1OCC(=O)N[C@@H](Cc1ccc(OCP(=O)(Oc2ccccc2)Oc2ccccc2)cc1)[C@H](O)CN(CC(C)C)S(=O)(=O)c1ccc(N)cc1,EC50,[10]; read-out: EC50,< 50 nM
same,I84V/L90M fold change,[6]; I84V/L90M mutant,++ (>10 to ≦30)
same,Ki,[7]; read-out: Ki,100 to 1000 pM
CCOP(=O)(COc1cccc(CN2C(=O)N(Cc3ccc4[nH]nc(N)c4c3)C(Cc3ccccc3)C(O)C(O)C2Cc2ccccc2)c1)OCC (centres unmarked),EC50,46I50V; [17],857 nM
same,EC50,WT; [18],665 nM
same,EC50,30N82I88D [1]; [19],93 nM
same,EC50,84V90M [2],3010 nM
same,EC50,48V54V82A [3]; [20],513 nM
Cc1ccc(C(=O)N[C@@H](Cc2ccc(OCP(=O)(Oc3ccccc3)Oc3ccccc3)cc2)[C@H](O)CN(CC(C)C)S(=O)(=O)c2ccc(N)cc2)cc1O,EC50,[10]; read-out: EC50,50 to 500 nM
same,I84V/L90M fold change,[6]; I84V/L90M mutant,+ (>3 to ≦10)
same,Ki,[7]; read-out: Ki,100 to 1000 pM
"CC(C)(C)NC(=O)[C@@H]1C[C@@H]2CCCC[C@@H]2CN1C[C@@H](O)[C@H](Cc1ccccc1)NC(=O)[C@H](CC(N)=O)NC(=O)c1ccc2ccccc2n1 [Saquinavir, reference compound]",Total No. of Resistant Viruses,[9]; {},4
same,EC50,WT HIV-1; [22],4 nM
CCOP(=O)(COc1ccc(CC2C(O)C(O)C(Cc3ccccc3)N(Cc3ccccc3)C(=O)N2Cc2ccccc2)cc1)OCC (centres unmarked),EC50,"WT HIV-1; Human immunodeficiency virus 1, read-out: Cell-based assay (MT-4) EC50/nM WT",107 nM
"CC(C)c1nc(CN(C)C(=O)N[C@H](C(=O)N[C@@H](Cc2ccccc2)C[C@H](O)[C@H](Cc2ccccc2)NC(=O)OCc2cncs2)C(C)C)cs1 [Ritonavir, reference compound]",Total No. of Resistant Viruses,[9]; {},10
same,EC50,WT HIV-1; [22],15 nM
"O=C1N(Cc2ccccc2)[C@H](Cc2ccccc2)[C@H](O)[C@@H](O)[C@@H](Cc2ccccc2)N1Cc1ccc2[nH]ncc2c1 [drawing 863, reference compound]",IC50,84V90M [11],43.3 nM
same,EC50,84V90M [2],2310 nM
